Laboratory results as given in US20220062429A1, “METHOD FOR ENHANCING EXPRESSION OF MOISTURIZING-RELATED SUBSTANCE IN EPIDERMIS” (J-Network, Inc., priority 2020, published 2022).

How the values were obtained:
Type in all cases: cell-based
profilaggrin mRNA = experiment: Amplification test of profilaggrin mRNA (quantitative real-time PCR) in normal human epidermal cells; conditions: for expression of profilaggrin mRNA, relative to N.C. = 100%: corrected with cyclophilin
Description: After samples were prepared using human epidermal cells, RNA of the cells was extracted and the quantity of mRNA of profilaggrin was determined.
Normal human epidermal cells (hereinafter, “epidermal cells”) (from Kurabo Industries Ltd.) were seeded at a cell density of 2.0×10^4 cells/well in a 96-well culture plate using a growth medium (KG2 medium: from Kurabo Industries Ltd.). After the cells were cultured at 37° C. under 5% carbon dioxide for 24 hours, the media were replaced with media (KB2 media not containing bovine pituitary extract: from Kurabo Industries Ltd.) to which Samples 11 to 18 described below were respectively added. Each of Samples 11, 14, and 17 as controls is a medium only. Samples 12, 13, 15, 16, and 18 are different from one another in the type and/or concentration (mass % with respect to the medium) of a diacylglycerol PEG adduct. • Sample 11: Control (N.C.) • Sample 12: GDS12 (0.100%) • Sample 13: GDS12 (0.050%) • Sample 14: Control (N.C.) • Sample 15: GDM12 (0.001%) • Sample 16: GDM12 (0.004%) • Sample 17: Control (N.C.) • Sample 18: GDS23 (0.002%)
Thereafter, the epidermal cells were cultured at 37° C. under 5% carbon dioxide for 3 hours. Subsequently, RNA was extracted from the cells.
Reverse transcription of the extracted RNA was performed to generate cDNA, and the quantity of profilaggrin mRNA was determined by quantitative real-time PCR expression analysis. Cyclophilin was used as an internal standard. In the analysis, the expression level of profilaggrin was corrected with a value of the expression level of cyclophilin as the internal standard in the same sample, and thereafter the correction value for each sample was calculated assuming the correction value for the control N.C. as 100%.

filaggrin [1] = experiment: Test 1 on promotion of filaggrin production: filaggrin immunostaining of human three-dimensional cultured epidermis model; conditions: 2%, 3.5% solutions in PBS(−) (Samples 2-4)
Description: After samples were prepared using a human epidermis model, production of filaggrin was observed by applying two staining methods, that is, an immunostaining method using an anti-filaggrin antibody and the method of Hematoxylin Eosin staining.
A human three-dimensional cultured epidermis model (hereinafter, “epidermis model”) (LabCyteEPI-MODEL24 6D: from Japan Tissue Engineering Co., Ltd.) was subjected to treatment in the following manner to prepare samples.
First, the epidermis model was incubated in an agar medium at room temperature for 24 hours. Thereafter, the epidermis model was cultured in a medium (an assay medium: from Japan Tissue Engineering Co., Ltd.) at 37° C. for 48 hours. […]
Thereafter, an anti-filaggrin antibody (from GeneTex, Inc.) was made to react with that section at 37° C. overnight, and an anti-mouse IgG Alexa Fluor (registered trademark) 488 antibody (from Cell Signaling Technology, Inc.) was further made to react at 37° C. for 2 hours. […] Then, green fluorescence and blue fluorescence were observed using a fluorescence microscope. The green fluorescence indicates the presence of filaggrin. The blue fluorescence is for confirming that there is no abnormality in cells of the epidermis model.

filaggrin [2] = experiment: Test 2 on promotion of filaggrin production: dot blotting in normal human epidermal cells; conditions: 72 hours
Description: After samples were prepared using human epidermal cells, production of filaggrin was observed by dot blotting and the quantity of filaggrin was determined.
Normal human epidermal cells (hereinafter, “epidermal cells”) (from Kurabo Industries Ltd.) were seeded at a cell density of 1.0×10^4 cells/well in a 96-well culture plate using a growth medium (KG2 medium: from Kurabo Industries Ltd.). After the cells were cultured at 37° C. under 5% carbon dioxide for 24 hours, the medium was replaced with media (KB2 media not containing bovine pituitary extract: from Kurabo Industries Ltd.) to which Samples 5 to 10 described below were respectively added. Each of Samples 5 and 8 as controls is a medium only. Samples 6, 7, 9, and 10 are different from one another in the type and/or concentration (mass % with respect to the medium) of a diacylglycerol PEG adduct to be added to the medium. • Sample 5: Control (N.C.) • Sample 6: GDM12 (0.0005%) • Sample 7: GDM12 (0.0010%) • Sample 8: Control (N.C.) • Sample 9: GDS23 (0.0025%) • Sample 10: GDS23 (0.0050%)
Thereafter, for each sample, the epidermal cells were cultured at 37° C. under 5% carbon dioxide for 72 hours. Subsequently, the epidermal cells were cleaned with PBS(−), 0.5% Triton X-100 (containing 2 mM PMSF) was then added, and thereafter the cells were disrupted by sonication.
A fixed amount of the suspension of disrupted cells was blotted on a nitrocellulose membrane and dried overnight. The transfer membrane after drying was immersed in a PBS solution of 1% BSA and blocked at room temperature for 1 hour. Thereafter, the membrane was cleaned with PBS(−), and an anti-human filaggrin antibody (Anti-Filaggrin: from ARGENE SA) was added onto the transfer membrane at a dilution concentration of 1:4000. The mixture was made to react at room temperature for 1 hour, and then the transfer membrane was cleaned with a PBS solution.
Thereafter, an immunohistochemical staining reagent (Histofine Simple Stain MAX-PO(M): from Nichirei Biosciences Inc.) was added onto the transfer membrane at a dilution concentration of 1:100 and was made to react at room temperature for 1 hour. […]
The brightness of each spot in the spot image obtained by dot blotting was quantitively determined using an analyzer (CS Analyzer Version 2.0: from ATTO Corporation).
FIG. 2a illustrates respective spot images for Samples 5, 6 and 7 related to GDM12, and FIG. 2b illustrates the production quantity of filaggrin for each sample determined based on FIG. 2a. The vertical axis of the graph represents the relative quantity when the quantity for the control N.C. is assumed as 100% (the same representation is also applied to graphs in drawings that will be described later).

caspase-14 mRNA = experiment: Caspase-14 mRNA expression (quantitative real-time PCR) in normal human epidermal cells; conditions: for expression of caspase-14 mRNA versus N.C. / expression of caspase-14 mRNA, relative to N.C. = 100%: 3 hours; for expression of caspase-14 mRNA, relative to N.C. = 100%: corrected with cyclophilin
Description: After samples were prepared using human epidermal cells, RNA of the cells was extracted and the quantity of caspase-14 mRNA was determined.
Normal human epidermal cells (hereinafter, “epidermal cells”) (from Kurabo Industries Ltd.) were seeded at a cell density of 2.0×10^4 cells/well in a 96-well culture plate using a growth medium (KG2 medium: from Kurabo Industries Ltd.). After the cells were cultured at 37° C. under 5% carbon dioxide for 24 hours, the media were replaced with media (KB2 media not containing bovine pituitary extract: from Kurabo Industries Ltd.) to which Samples 19 to 26 described below were respectively added. Each of Samples 19 and 24 as controls is a medium only. Samples 20, 21, 22, 23, and 25 are different from one another in the type and/or concentration (mass % with respect to the medium) of a diacylglycerol PEG adduct contained in the medium. • Sample 19: Control (N.C.) • Sample 20: GDM12 (0.001%) • Sample 21: GDM12 (0.004%) • Sample 22: GDM12 (0.020%) • Sample 23: GDM12 (0.100%) • Sample 24: Control (N.C.) • Sample 25: GDS23 (0.0004%)
Subsequently, the epidermal cells were cultured at 37° C. under 5% carbon dioxide for 3 hours. Subsequently, RNA was extracted from the cells.
Reverse transcription of the extracted RNA was performed to generate cDNA, and the quantity of caspase-14 mRNA was determined by quantitative real-time PCR expression analysis. Cyclophilin was used as an internal standard. In the analysis, the expression level of caspase-14 was corrected with a value of the expression level of cyclophilin as the internal standard in the same sample, and thereafter the correction value of each sample was calculated, assuming the correction value of the control sample as 100%.

PEG-12 glycerol distearate [GDS12]
expression of profilaggrin mRNA, relative to N.C. = 100% (profilaggrin mRNA; 0.050% in medium (Sample 13), 3 hours): about 150%
expression of profilaggrin mRNA, relative to N.C. = 100% (profilaggrin mRNA; 0.100% in medium (Sample 12), 3 hours): about 150%
concentration dependence of increase of profilaggrin mRNA (profilaggrin mRNA; Samples 12 and 13 (0.100%, 0.050%)): the increase is larger as the concentration of GDS12 is higher

PEG-12 glycerol dimyristate [GDM12]
concentration dependence of production quantity of filaggrin (filaggrin [1]): more as the concentration of the GDM12 solution is higher
production quantity of filaggrin in the stratum corneum (green fluorescence) versus N.C. (filaggrin [1]; 30 μL on stratum corneum, 18 hours, model recovered 6 days after application): more than that of the epidermis model of N.C.
production quantity of filaggrin, relative to N.C. = 100% (filaggrin [2]; 0.0005% in medium (Sample 6)): ≥ 200%
production quantity of filaggrin, relative to N.C. = 100% (filaggrin [2]; 0.0010% in medium (Sample 7)): ≥ 200%
increase of expression of profilaggrin mRNA versus N.C. (profilaggrin mRNA; 0.001% in medium (Sample 15), 3 hours): slight
expression of profilaggrin mRNA, relative to N.C. = 100% (profilaggrin mRNA; 0.004% in medium (Sample 16), 3 hours): about 150%
expression of caspase-14 mRNA versus N.C. (caspase-14 mRNA; 0.001% in medium (Sample 20)): increased
expression of caspase-14 mRNA versus N.C. (caspase-14 mRNA; 0.004% in medium (Sample 21)): increased
expression of caspase-14 mRNA, relative to N.C. = 100% (caspase-14 mRNA; 0.020% in medium (Sample 22)): about 200%
expression of caspase-14 mRNA, relative to N.C. = 100% (caspase-14 mRNA; 0.100% in medium (Sample 23)): about 400%
concentration dependence of increase of caspase-14 mRNA (caspase-14 mRNA; Samples 20-23 (0.001% to 0.100%)): the increase is larger as the concentration of GDM12 is higher

PEG-23 glycerol distearate [GDS23]
production quantity of filaggrin, relative to N.C. = 100% (filaggrin [2]; 0.0025% in medium (Sample 9)): about 200%
production quantity of filaggrin, relative to N.C. = 100% (filaggrin [2]; 0.0050% in medium (Sample 10)): about 200%
expression of profilaggrin mRNA, relative to N.C. = 100% (profilaggrin mRNA; 0.002% in medium (Sample 18), 3 hours): about 120%
expression of caspase-14 mRNA, relative to N.C. = 100% (caspase-14 mRNA; 0.0004% in medium (Sample 25)): about 150%
